Experimental data taken from the CheMixHub ionic liquid set.

Assay: xn = mol fraction of the nth substance listed

CCCCCCCCCC(=O)[O-].CCCCCCCCCCCCCC[P+](CCCCCC)(CCCCCC)CCCCCC + O
Conditions	viscosity [mPa·s]
358.15 K, 100 kPa, x2 = 0.872	9.345

CCCCCC[n+]1ccccc1.N#C[N-]C#N + O
100 kPa
Conditions	electrical conductivity [S/m]	viscosity [mPa·s]
298.15 K, x1 = 0.9308	–	50.4
298.15 K, x1 = 0.9582	0.494	–
298.15 K, x1 = 0.9762	0.477	–
298.15 K, x2 = 0.01463	–	56.3
303.15 K, x1 = 0.9663	–	43.33
308.15 K, x1 = 0.924	0.796	–
318.15 K, x1 = 0.9146	–	22.52
318.15 K, x1 = 0.9409	1.09	–
318.15 K, x1 = 0.9663	–	24.43
328.15 K, x1 = 0.9146	–	15.96
328.15 K, x1 = 0.924	1.47	–
328.15 K, x1 = 0.9487	–	16.85
328.15 K, x1 = 0.9762	1.35	–
338.15 K, x1 = 0.9075	1.94	–
338.15 K, x1 = 0.9146	–	12.16
338.15 K, x1 = 0.9409	1.85	–
338.15 K, x2 = 0.01463	–	13.8

CCCC[n+]1ccc(C)cc1.N#C[S-] + O
101 kPa
Conditions	viscosity [mPa·s]
298.15 K, x2 = 0.0564	74.9
298.15 K, x2 = 0.9714	1.58
308.15 K, x2 = 0.6364	10.02
308.15 K, x2 = 0.9714	1.24
318.15 K, x1 = 0.0076	0.73
318.15 K, x2 = 0	33.9
318.15 K, x2 = 0.9714	1.01
328.15 K, x2 = 0.9028	1.71
328.15 K, x2 = 0.957	1.01
328.15 K, x2 = 0.9714	0.84
338.15 K, x2 = 0	17.3
338.15 K, x2 = 0.1655	12.9
338.15 K, x2 = 0.3797	8.38
338.15 K, x2 = 0.4628	7.17
338.15 K, x2 = 0.5669	5.54
338.15 K, x2 = 0.7623	2.94
338.15 K, x2 = 0.9714	0.73
348.15 K, x2 = 0.1655	9.89
348.15 K, x2 = 0.5669	4.45
348.15 K, x2 = 0.957	0.75

CCCC[n+]1cccc(C)c1.N#C[N-]C#N + O
298.15 K, 101 kPa
Conditions	electrical conductivity [S/m]
x1 = 0.0001676	0.072
x1 = 0.0003333	0.132
x1 = 0.0004971	0.18
x1 = 0.0007203	0.265
x1 = 0.0009901	0.347
x1 = 0.001245	0.42
x1 = 0.001513	0.502
x1 = 0.001757	0.558
x1 = 0.002014	0.629
x1 = 0.002115	0.655
x1 = 0.002344	0.698
x1 = 0.002438	0.725
x1 = 0.002706	0.785
x1 = 0.002941	0.824
x1 = 0.00295	0.83
x1 = 0.00329	0.889
x1 = 0.003543	0.944
